Results from patent US20100029615A1, “BENZIMIDAZOLE DERIVATIVES” (priority 2006, published 2010).
Structures can show the parent of a compound that is named as a salt.

target: T1, SMO (Mus musculus, UniProt P56726); assay: Smoothened (SMO)/Sonic Hedgehog (SHh) Transient Transcriptional Activation Assay (Gli-luciferase reporter in C3H10T1/2 cells); type: cell-based, murine; conditions: C3H 10T1/2, 2 μM test compound, SHh 250 ng/ml, 20 hrs, read-out: SMO CELL % INHIBITION @ 2 μM
T1 construct: endogenous in cells; host or cells: C3H10T1/2 (ATCC #CCL-226)
T1 sequence (P56726 33-793): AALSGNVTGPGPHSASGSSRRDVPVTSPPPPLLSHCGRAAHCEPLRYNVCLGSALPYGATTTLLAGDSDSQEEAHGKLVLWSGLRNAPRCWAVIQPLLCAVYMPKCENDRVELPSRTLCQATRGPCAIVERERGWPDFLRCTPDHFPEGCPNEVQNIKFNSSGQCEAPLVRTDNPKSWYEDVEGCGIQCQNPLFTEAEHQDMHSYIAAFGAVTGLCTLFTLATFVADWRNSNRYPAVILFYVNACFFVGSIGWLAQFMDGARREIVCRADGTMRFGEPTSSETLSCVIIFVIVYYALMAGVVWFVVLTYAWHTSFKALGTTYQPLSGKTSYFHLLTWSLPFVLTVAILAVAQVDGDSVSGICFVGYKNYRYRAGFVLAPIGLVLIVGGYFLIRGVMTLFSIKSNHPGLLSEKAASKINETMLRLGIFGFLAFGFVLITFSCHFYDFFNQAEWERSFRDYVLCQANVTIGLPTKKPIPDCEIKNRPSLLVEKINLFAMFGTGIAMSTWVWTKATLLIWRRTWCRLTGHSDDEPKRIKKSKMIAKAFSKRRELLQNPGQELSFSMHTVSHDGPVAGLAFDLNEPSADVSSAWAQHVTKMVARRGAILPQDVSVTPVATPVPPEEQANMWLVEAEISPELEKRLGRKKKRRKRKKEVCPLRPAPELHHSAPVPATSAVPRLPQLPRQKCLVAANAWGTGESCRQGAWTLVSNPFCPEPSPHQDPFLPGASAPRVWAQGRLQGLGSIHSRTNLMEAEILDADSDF
Procedure: As noted above, the compounds of the invention are useful as inhibitors of SMO. Methods for determining the in vitro activity of these compounds are described below: Smoothened (SMO)/Sonic Hedgehog (SHh) Transient Transcriptional Activation Assay
On Day 1,2×10^6 C3H10T1/2 cells (ATCC #CCL-226) were split and seeded in 12 mls of growth medium Basal Medium Eagle (BME, Invitrogen #21010-046) supplemented with 2 mM L-glutamine (Invitrogen #25030-081), 0.1 units/ml penicillin and 0.1 ug/ml streptomycin (Invitrogen #15140-122), and 10% Fetal Bovine Serum (FBS, Invitrogen #16140-071) in a T-75 flask (Costar #3376). They were allowed to attach for 4 hours at 37° C., 5% CO2. The cells were then transfected using Fugene 6 (Roch #11 814 443 001) in the following reaction: 48 ul Fugene 6 and 745 ul Opti-MEM (Invitrogen #31985-070) were mixed and allowed to sit at room temperature for 5 minutes. 8 ug of pGL4.14/mGli(CS) DNA (10× murine Gli response elements and minimal CS promoter) and 0.5 ug of pEGFP DNA (Clontech) were added, gently mixed and incubated at room temperature for 20 minutes. This entire transfection mix was then added to the T-75 flask containing the cells. The cells were incubated at 37 °C, 5% C02 for 18-24 hrs.
On Day 2, the transfected cells were trypsinized and seeded into white 96 well plates (Costar #3917) in 100ul/well of growth medium at a concentration of 20,000 cells/well. The cells were allowed to recover for 4 hrs before adding serum starvation medium Dulbecco's Modified Eagle Medium (DMEM, Invitrogen #21063-029) supplemented with 2 mM L-glutamine, 0.1 units/ml penicillin and 0.1 ug/ml streptomycin, and 0.5% Calf Serum (CS, Invitrogen #26170-043). The growth media was aspirated off, and the cells were rinsed with 100 ul of starvation media. 95 ul of starvation media was then added to each well. The cells were incubated for 20 hrs at 37 °C, 5% C02.
On Day 3, cells were dosed with test compounds at a final concentration ranging from 2 uM to 2 nM. Immediately after dosing cells with compounds, recombinant human sonic hedgehog (SHh, R&D Systems #1845-SH) was add to a final concentration of 250 ng/ml. A 25 ug vial of SHh was reconstituted with 250 ul PBS/0.1% BSA to give a 100 ng/ul working stock. This working stock was then diluted 1:20 in starvation media. The transfected cells were incubated with compounds and SHh for 20 hrs at 37 °C, 5% C02.
Luciferase assays were conducted on Day 4 using Dual-Glo Luciferase assay system (Promega #E2940) according to Promega's protocol. Briefly, Dual-Glo luciferase reagent was made up and 100 uls were added to each well of the 96 well plate containing media. Plates were shaken at room temperature for 10 minutes, and then read on TopCount (Perkin-Elmer). The luminescence was recorded.

SMILES	inhibition at 2 µM [%]
Cc1cc2nc(C3CCCC(NC(=O)c4ccc5c(c4)OCCO5)C3)[nH]c2cc1C (stereo not drawn) [Example 80, N-[3-(5,6-dimethyl-1H-benzimidazol-2-yl)cyclohexyl]-2,3-dihydro-1,4-benzodioxine-6-carboxamide HCl]	103
O=C(NC1CCCC(c2nc3ccc(F)c(F)c3[nH]2)C1)c1ccc2c(c1)OCCO2 (stereo not drawn) [Example 81, N-[3-(6,7-difluoro-1H-benzimidazol-2-yl)cyclohexyl]-2,3-dihydro-1,4-benzodioxine-6-carboxamide HCl]	103
Cc1c(Br)cc2[nH]c(C3CCCC(NC(=O)c4ccc5c(c4)OCCO5)C3)nc2c1C (stereo not drawn) [Example 82, N-[3-(6-bromo-4,5-dimethyl-1H-benzimidazol-2-yl)cyclohexyl]-2,3-dihydro-1,4-benzodioxine-6-carboxamide HCl]	101
O=C(NC1CCCC(c2nc3cc(F)c(F)cc3[nH]2)C1)c1ccc2c(c1)OCCO2 (stereo not drawn) [Example 83, N-[3-(5,6-difluoro-1H-benzimidazol-2-yl)cyclohexyl]-2,3-dihydro-1,4-benzodioxine-6-carboxamide HCl]	103
O=C(NC1CCCC(c2nc3ccc(C(F)(F)F)cc3[nH]2)C1)c1ccc2c(c1)OCCO2 (stereo not drawn) [Example 84, N-{3-[6-(trifluoromethyl)-1H-benzimidazol-2-yl]cyclohexyl}-2,3-dihydro-1,4-benzodioxine-6-carboxamide-HCl]	101
O=C(NC1CCCC(c2nc3ccc(Cl)cc3[nH]2)C1)c1ccc2c(c1)OCCO2 (stereo not drawn) [Example 85, N-[3-(6-chloro-1H-benzimidazol-2-yl)cyclohexyl]-2,3-dihydro-1,4-benzodioxine-6-carboxamide HCl]	103
O=C(NC1CCCC(c2nc3ccc(Br)cc3[nH]2)C1)c1ccc2c(c1)OCCO2 (stereo not drawn) [Example 86, N-[3-(6-bromo-1H-benzimidazol-2-yl)cyclohexyl]-2,3-dihydro-1,4-benzodioxine-6-carboxamide HCl]	102
O=C(NC12CCCC(c3nc4ccccc4[nH]3)(C1)C2)c1ccc2c(c1)OCCO2 [Example 87, N-[5-(1H-benzimidazol-2-yl)bicyclo[3.1.1]hept-1-yl]-2,3-dihydro-1,4-benzodioxine-6-carboxamide]	91
COc1ccc2[nH]c([C@H]3CCC[C@@H](NC(=O)c4ccc5c(c4)OCCO5)C3)nc2c1 [Example 88, N-[(1R,3S)-3-(5-methoxy-1H-benzimidazol-2-yl)cyclohexyl]-2,3-dihydro-1,4-benzodioxine-6-carboxamide HCl]	106
O=C(NC1CCCC(c2nc3ccccc3[nH]2)C1)c1ccc(-n2ccnc2)cc1 (stereo not drawn) [Example 90, N-[3-(1H-benzimidazol-2-yl)cyclohexyl]-4-(1H-imidazol-1-yl)benzamide triflouroacetate]	100
O=C(NC1CCCC(c2nc3ccccc3[nH]2)C1)c1cnn(Cc2ccccc2)c1 (stereo not drawn) [Example 91, N-[3-(1H-benzimidazol-2-yl)cyclohexyl]-1-benzyl-1H-pyrazole-4-carboxamide triflouroacetate]	99
CC(C)C1=NOC(C(=O)NC2CCCC(c3nc4ccccc4[nH]3)C2)C1 (stereo not drawn) [Example 97, N-[3-(1H-benzimidazol-2-yl)cyclohexyl]-3-isopropyl-4,5-dihydroisoxazole-5-carboxamide triflouroacetate]	83
CCOC(=O)CCCCC(=O)NC1CCCC(c2nc3ccccc3[nH]2)C1 (stereo not drawn) [Example 98, ethyl 6-{[3-(1H-benzimidazol-2-yl)cyclohexyl]amino}-6-oxohexanoate trifl;uoroacetate]	55
CC(=O)c1c(C)[nH]c(C(=O)NC2CCCC(c3nc4ccccc4[nH]3)C2)c1C (stereo not drawn) [Example 99, 4-acetyl-N-[3-(1H-benzimidazol-2-yl)cyclohexyl]-3,5-dimethyl-1H-pyrrole-2-carboxamide triflouroacetate]	107
COc1cc(OC)cc(C(=O)NC23CCCC(c4nc5ccccc5[nH]4)(C2)C3)c1 [Example 100, N-[5-(1H-benzimidazol-2-yl)bicyclo[3.1.1]hept-1-yl]-3,5-dimethoxybenz-amide]	81
COC(=O)CCCC(=O)NC1CCCC(c2nc3ccccc3[nH]2)C1 (stereo not drawn) [Example 103, methyl 5-{[3-(1H-benzimidazol-2-yl)cyclohexyl]-amino}-5-oxopentanoate triflouroacetate]	94
O=C(NC1CCCC(c2nc3ccccc3[nH]2)C1)c1c[nH]c(=O)[nH]c1=O (stereo not drawn) [Example 108, N-[3-(1H-benzimidazol-2-yl)cyclohexyl]-2,4-dioxo-1,2,3,4-tetrahydropyr-imidine-5-carboxamide triflouroacetate]	116

Results, then the molecule that gave them:

inhibition at 2 µM [%]	SMILES
96	O=C(CCC(=O)c1ccccc1)NC1CCCC(c2nc3ccccc3[nH]2)C1 (stereo not drawn) [Example 89, N-[3-(1H-benzimidazol-2-yl)cyclohexyl]-4-oxo-4-phenylbutanamide triflouroacetate]
90	O=C(Cn1nc2ccccc2n1)NC1CCCC(c2nc3ccccc3[nH]2)C1 (stereo not drawn) [Example 92, N-[3-(1H-benzimidazol-2-yl)cyclohexyl]-2-(2H-1,2,3-benzotriazol-2-yl)acetamide triflouroacetate]
24	Cc1ccoc1C(=O)NC1CCCC(c2nc3ccccc3[nH]2)C1 (stereo not drawn) [Example 93, N-[3-(1H-benzimidazol-2-yl)cyclohexyl]-3-methyl-2-furamide triflouroacetate]
96	CN1c2ccccc2OCC1CC(=O)NC1CCCC(c2nc3ccccc3[nH]2)C1 (stereo not drawn) [Example 94, N-[3-(1H-benzimidazol-2-yl)cyclohexyl]-2-(4-methyl-3,4-dihydro-2H-1,4-benzoxazin-3-yl)acetamide triflouroacetate]
20	O=C(Cn1ncc2ccccc21)NC1CCCC(c2nc3ccccc3[nH]2)C1 (stereo not drawn) [Example 95, N-[3-(1H-benzimidazol-2-yl)cyclohexyl]-2-(1H-indazol-1-yl)acetamide triflouroacetate]
93	COCOc1ccc(C(=O)NC2CCCC(c3nc4ccccc4[nH]3)C2)cc1 (stereo not drawn) [Example 96, N-[3-(1H-benzimidazol-2-yl)cyclohexyl]-4-(methoxymeth-oxy)benzamide triflouroacetate]
56	O=C(NC1CCCC(c2nc3ccccc3[nH]2)C1)c1n[nH]c2ccccc12 (stereo not drawn) [Example 101, N-[3-(1H-benzimidazol-2-yl)cyclohexyl]-1H-indazole-3-carboxamide triflouroacetate]
93	N#CCC(=O)NC1CCCC(c2nc3ccccc3[nH]2)C1 (stereo not drawn) [Example 102, N-[3-(1H-benzimidazaol-2-yl)cyclohexyl]-2-cyanoacetamide triflouroacetate]
73	O=C(COCc1ccccc1)NC1CCCC(c2nc3ccccc3[nH]2)C1 (stereo not drawn) [Example 104, N-[3-(1H-benzimidazol-2-yl)cyclohexyl]-2-(benzyloxy)-acetamide triflouroacetate]
103	O=C(CN1C(=O)COc2cccnc21)NC1CCCC(c2nc3ccccc3[nH]2)C1 (stereo not drawn) [Example 105, N-[3-(1H-benzimidazol-2-yl)cyclohexyl]-2-(3-oxo-2,3-dihydro-4H-pyrido[3,2-b][1,4]oxazin-4-yl)acetamide triflouroacetate]
76	O=C(NC1CCCC(c2nc3ccccc3[nH]2)C1)c1ccnn1-c1ccccc1 (stereo not drawn) [Example 106, N-[3-(1H-benzimidazol-2-yl)cyclohexyl]-1-phenyl-1H-pyrazole-5-carboxamide triflouroacetate]
79	O=C(Cc1cn2cc(Cl)ccc2n1)NC1CCCC(c2nc3ccccc3[nH]2)C1 (stereo not drawn) [Example 107, N-[3-(1H-benzimidazol-2-yl)cyclohexyl]-2-(6-chloroimidazo[1,2-a]pyridin-2-yl)acetamide triflouroacetate]
97	COc1ncccc1C(=O)NC1CCCC(c2nc3ccccc3[nH]2)C1 (stereo not drawn) [Example 109, N-[3-(1H-benzimidazol-2-yl)cyclohexyl]-2-methoxynico-tinamide triflouroacetate]
